Assay results reported in patent publication US12012399B2, “Microbiocidal quinoline dihydro-(thiazine)oxazine derivatives” (priority 2018, dated 2024).

What was measured:
[1] = system: Botryotinia fuckeliana (Botrytis cinerea); assay: Botryotinia fuckeliana (Botrytis cinerea) / liquid culture (gray mould); type: cell-based; details: 72 h, compared to untreated control, growth inhibition determined photometrically 3-4 days after application
[2] = system: Glomerella lagenarium (Colletotrichum lagenarium); assay: Glomerella lagenarium (Colletotrichum lagenarium) / liquid culture (anthracnose); type: cell-based; details: Colletotrichum orbiculare, compared to untreated control, growth inhibition measured photometrically 3-4 days after application
[3] = system: Fusarium culmorum; assay: microbe, parasite or virus in culture; type: cell-based; details: read-out: control of Fusarium culmorum
[4] = system: Monographella nivalis (Microdochium nivale); assay: Monographella nivalis (Microdochium nivale) / liquid culture (foot rot cereals); type: cell-based; details: compared to untreated control, growth inhibition determined photometrically 4-5 days after application
[5] = system: Magnaporthe grisea (Pyricularia oryzae); assay: microbe, parasite or virus in culture; type: cell-based; details: read-out: control of Magnaporthe grisea
[6] = system: Sclerotinia sclerotiorum; assay: microbe, parasite or virus in culture; type: cell-based; details: read-out: control of Sclerotinia sclerotiorum
[7] = system: Mycosphaerella graminicola (Septoria tritici); assay: Mycosphaerella graminicola (Septoria tritici) / liquid culture (Septoria blotch); type: cell-based; details: Zymoseptoria tritici, compared to untreated control, growth inhibition determined photometrically 4-5 days after application
[8] = system: Mycosphaerella graminicola (Septoria tritici); assay: Mycosphaerella graminicola (Septoria tritici) on wheat / preventative; type: in vivo; details: Zymoseptoria tritici, wheat plants sprayed, inoculated one day after application, assessed 16-19 days after application vs untreated control

## CC1(C)CC(Cc2ccccc2)N=C(c2cnc3c(F)cccc3c2)O1 (stereo not drawn) [E-13, 4-benzyl-2-(8-fluoro-3-quinolyl)-6,6-dimethyl-4,5-dihydro-1,3-oxazine]
[1]
  inhibition of growth at 20 ppm: ≥ 80%
[2]
  inhibition of growth at 20 ppm: ≥ 80%
[3]
  inhibition of growth at 20 ppm: ≥ 80%
[4]
  inhibition of growth at 20 ppm: ≥ 80%
[5]
  inhibition of growth at 20 ppm: ≥ 80%
[6]
  inhibition of growth at 20 ppm: ≥ 80%
[7]
  inhibition of growth at 20 ppm: ≥ 70%
other
  melting point: 90 to 92 °C

## CC1(C)CC(Cc2ccccc2)N=C(c2cnc3c(F)c(F)ccc3c2)O1 (stereo not drawn) [F-5]
[1]
  inhibition of growth at 20 ppm: ≥ 80%
[3]
  inhibition of growth at 20 ppm: ≥ 80%
[4]
  inhibition of growth at 20 ppm: ≥ 80%
[5]
  inhibition of growth at 20 ppm: ≥ 80%
[6]
  inhibition of growth at 20 ppm: ≥ 80%
[8]
  pest or weed control at 60 ppm: ≥ 80%
[7]
  inhibition of growth at 20 ppm: ≥ 70%

## Cc1nc2c(F)c(F)ccc2cc1C1=NC(Cc2ccccc2)CC(C)(C)O1 (stereo not drawn) [E-22, 4-benzyl-2-(7,8-difluoro-2-methyl-3-quinolyl)-6,6-dimethyl-4,5-dihydro-1,3-oxazine]
[1]
  inhibition of growth at 20 ppm: ≥ 80%
[3]
  inhibition of growth at 20 ppm: ≥ 80%
[4]
  inhibition of growth at 20 ppm: ≥ 80%
[6]
  inhibition of growth at 20 ppm: ≥ 80%
[8]
  pest or weed control at 60 ppm: ≥ 80%
[7]
  inhibition of growth at 20 ppm: ≥ 70%

## Fc1ccc2cc(C3=NC(Cc4ccccc4)CC4(CCCC4)O3)cnc2c1F (stereo not drawn) [E-21, 9-benzyl-7-(7,8-difluoro-3-quinolyl)-6-oxa-8-azaspiro[4.5]dec-7-ene]
[1]
  inhibition of growth at 20 ppm: ≥ 80%
[4]
  inhibition of growth at 20 ppm: ≥ 80%
[5]
  inhibition of growth at 20 ppm: ≥ 80%
[8]
  pest or weed control at 60 ppm: ≥ 80%
[7]
  inhibition of growth at 20 ppm: ≥ 70%

## Cc1nc2c(F)c(F)ccc2cc1C1=NC(Cc2ccc(F)cc2)CC(C)(C)O1 (stereo not drawn) [E-24, 2-(7,8-difluoro-2-methyl-3-quinolyl)-4-[(4-fluorophenyl)methyl]-6,6-dimethyl-4,5-dihydro-1,3-oxazine]
[1]
  inhibition of growth at 20 ppm: ≥ 80%
[4]
  inhibition of growth at 20 ppm: ≥ 80%
[8]
  pest or weed control at 60 ppm: ≥ 80%
[7]
  inhibition of growth at 20 ppm: ≥ 70%
other
  melting point: 128 to 132 °C

## C[C@@]1(Cc2ccccc2)C[C@@](C)(CCl)OC(c2cnc3c(F)cccc3c2)=N1 [E-10, (4R,6S)-4-benzyl-6-(chloromethyl)-2-(8-fluoro-3-quinolyl)-4,6-dimethyl-5H-1,3-oxazine]
[1]
  inhibition of growth at 20 ppm: ≥ 80%
[2]
  inhibition of growth at 20 ppm: ≥ 80%
[3]
  inhibition of growth at 20 ppm: ≥ 80%
[4]
  inhibition of growth at 20 ppm: ≥ 80%
[5]
  inhibition of growth at 20 ppm: ≥ 80%
[6]
  inhibition of growth at 20 ppm: ≥ 80%
[7]
  inhibition of growth at 20 ppm: ≥ 70%
other
  melting point: 125 to 130 °C

## CC1(C)CC(Cc2ccc(F)cc2)N=C(c2cnc3c(F)c(F)ccc3c2)O1 (stereo not drawn) [F-7]
[3]
  inhibition of growth at 20 ppm: ≥ 80%
[8]
  pest or weed control at 60 ppm: ≥ 80%
other
  melting point: 117 to 119 °C

## Fc1ccc2cc(C3=NC(Cc4ccccc4)CC4(CCC4)O3)cnc2c1F (stereo not drawn) [E-23, 8-benzyl-6-(7,8-difluoro-3-quinolyl)-5-oxa-7-azaspiro[3.5]non-6-ene]
[1]
  inhibition of growth at 20 ppm: ≥ 80%
[4]
  inhibition of growth at 20 ppm: ≥ 80%
[8]
  pest or weed control at 60 ppm: ≥ 80%
other
  melting point: 159 to 162 °C

## CC1(C)CC(Cc2cccc(F)c2)N=C(c2cnc3c(F)c(F)ccc3c2)O1 (stereo not drawn) [E-19, 2-(7,8-difluoro-3-quinolyl)-4-[(3-fluorophenyl)methyl]-6,6-dimethyl-4,5-dihydro-1,3-oxazine]
[1]
  inhibition of growth at 20 ppm: ≥ 80%
[3]
  inhibition of growth at 20 ppm: ≥ 80%
[4]
  inhibition of growth at 20 ppm: ≥ 80%
[5]
  inhibition of growth at 20 ppm: ≥ 80%
[6]
  inhibition of growth at 20 ppm: ≥ 80%
[8]
  pest or weed control at 60 ppm: ≥ 80%
[7]
  inhibition of growth at 20 ppm: ≥ 70%
other
  melting point: 95 to 98 °C

## CC1(C)CC(Cc2ccccc2F)N=C(c2cnc3c(F)c(F)ccc3c2)O1 (stereo not drawn) [E-20, 2-(7,8-difluoro-3-quinolyl)-4-[(2-fluorophenyl)methyl]-6,6-dimethyl-4,5-dihydro-1,3-oxazine]
[1]
  inhibition of growth at 20 ppm: ≥ 80%
[3]
  inhibition of growth at 20 ppm: ≥ 80%
[4]
  inhibition of growth at 20 ppm: ≥ 80%
[5]
  inhibition of growth at 20 ppm: ≥ 80%
[8]
  pest or weed control at 60 ppm: ≥ 80%

## CCC1(C)CC(C)(Cc2ccccc2)N=C(c2cnc3c(F)cccc3c2)O1 (stereo not drawn) [E-9, 4-benzyl-6-ethyl-2-(8-fluoro-3-quinolyl)-4,6-dimethyl-5H-1,3-oxazine]
[1]
  inhibition of growth at 20 ppm: ≥ 80%
[2]
  inhibition of growth at 20 ppm: ≥ 80%
[3]
  inhibition of growth at 20 ppm: ≥ 80%
[4]
  inhibition of growth at 20 ppm: ≥ 80%
[5]
  inhibition of growth at 20 ppm: ≥ 80%
[6]
  inhibition of growth at 20 ppm: ≥ 80%
[7]
  inhibition of growth at 20 ppm: ≥ 70%
